Results: patent US20250368666A1, “INDAZOLE COMPOUNDS” (TYRA BIOSCIENCES, INC., priority 2022, published 2025)

Assays:
Assay in all cases: Kinase binding assay (kinase-tagged T7 phage, affinity beads, qPCR), Kd
FGFR3 (V555M) = target: T1, FGFR3 (V555M) (Homo sapiens, UniProt P22607, V555M); conditions: V555M mutant; read-out: FGFR3 (V555M) (Kd nM)
T1 construct: made in house; host or cells: E. coli (BL21-derived), T7 phage
Procedure, shortened: (§1)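 Kd obtained by Levenberg–Marquardt Hill-equation fit (slope −1) to qPCR-measured kinase retained on ligand-coated streptavidin beads.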

FGFR4 = target: T2, FGFR4 (Homo sapiens, UniProt P22455); conditions: read-out: FGFR4 (Kd nM)
T2 construct: made in house; host or cells: E. coli (BL21-derived), T7 phage
Procedure, shortened: as §1

FGFR1 = target: T3, FGFR1 (Homo sapiens, UniProt P11362); conditions: read-out: FGFR1 (Kd nM)
T3 construct: made in house; host or cells: E. coli (BL21-derived), T7 phage
Procedure, shortened: as §1

FGFR2 = target: T4, FGFR2 (Homo sapiens, UniProt P21802); conditions: read-out: FGFR2 (Kd nM)
T4 construct: made in house; host or cells: E. coli (BL21-derived), T7 phage
Procedure, shortened: as §1

FGFR3 = target: T5, FGFR3 (Homo sapiens, UniProt P22607); conditions: read-out: FGFR3 (Kd nM)
T5 construct: made in house; host or cells: E. coli (BL21-derived), T7 phage
Procedure, shortened: as §1

Measured: Kd

T5 sequence (P22607 23-806): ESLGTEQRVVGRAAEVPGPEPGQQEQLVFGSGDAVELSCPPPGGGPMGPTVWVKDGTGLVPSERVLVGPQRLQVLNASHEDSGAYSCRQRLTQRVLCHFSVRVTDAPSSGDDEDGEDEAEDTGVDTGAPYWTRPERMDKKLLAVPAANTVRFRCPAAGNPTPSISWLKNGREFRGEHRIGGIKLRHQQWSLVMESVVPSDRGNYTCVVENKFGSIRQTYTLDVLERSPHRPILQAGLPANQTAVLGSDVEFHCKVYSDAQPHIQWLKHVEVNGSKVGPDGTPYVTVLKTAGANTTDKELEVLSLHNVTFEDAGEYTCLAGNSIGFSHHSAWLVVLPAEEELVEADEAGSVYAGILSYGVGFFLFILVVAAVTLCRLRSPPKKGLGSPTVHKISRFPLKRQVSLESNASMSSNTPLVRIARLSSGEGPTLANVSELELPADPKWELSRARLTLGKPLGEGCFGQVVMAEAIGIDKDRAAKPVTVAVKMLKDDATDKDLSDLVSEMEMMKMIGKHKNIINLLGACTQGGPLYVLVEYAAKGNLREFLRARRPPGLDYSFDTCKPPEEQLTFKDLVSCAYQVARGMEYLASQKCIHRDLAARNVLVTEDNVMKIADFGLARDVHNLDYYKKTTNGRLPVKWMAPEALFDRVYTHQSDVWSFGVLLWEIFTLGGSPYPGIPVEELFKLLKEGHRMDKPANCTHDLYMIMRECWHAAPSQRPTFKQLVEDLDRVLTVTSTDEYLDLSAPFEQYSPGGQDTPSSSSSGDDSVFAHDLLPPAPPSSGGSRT
T1 sequence (P22607 23-806 V555M): as the sequence (P22607 23-806) above, with V533M counted along it
T3 sequence (P11362 22-822): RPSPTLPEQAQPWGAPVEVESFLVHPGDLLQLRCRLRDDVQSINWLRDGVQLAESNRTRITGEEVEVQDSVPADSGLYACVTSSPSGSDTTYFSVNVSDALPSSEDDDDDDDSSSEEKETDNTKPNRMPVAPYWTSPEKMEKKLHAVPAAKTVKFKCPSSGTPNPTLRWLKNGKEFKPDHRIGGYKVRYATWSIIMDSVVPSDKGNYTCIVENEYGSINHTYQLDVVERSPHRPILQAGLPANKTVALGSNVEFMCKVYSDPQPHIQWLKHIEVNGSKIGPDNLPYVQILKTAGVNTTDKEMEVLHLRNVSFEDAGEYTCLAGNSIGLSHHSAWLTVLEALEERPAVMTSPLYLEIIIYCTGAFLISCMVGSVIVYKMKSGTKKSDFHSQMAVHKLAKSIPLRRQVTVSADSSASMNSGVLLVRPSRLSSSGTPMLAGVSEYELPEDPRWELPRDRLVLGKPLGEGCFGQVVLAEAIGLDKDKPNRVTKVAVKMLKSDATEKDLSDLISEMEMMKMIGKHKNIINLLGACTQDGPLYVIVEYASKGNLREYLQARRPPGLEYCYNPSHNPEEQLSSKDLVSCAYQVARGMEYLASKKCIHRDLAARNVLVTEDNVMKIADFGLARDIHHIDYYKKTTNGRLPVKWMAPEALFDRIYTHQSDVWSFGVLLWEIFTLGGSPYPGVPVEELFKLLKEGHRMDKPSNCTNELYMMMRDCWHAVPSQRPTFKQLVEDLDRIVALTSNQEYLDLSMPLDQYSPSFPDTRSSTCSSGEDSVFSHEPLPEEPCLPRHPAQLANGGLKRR
T4 sequence (P21802 22-821): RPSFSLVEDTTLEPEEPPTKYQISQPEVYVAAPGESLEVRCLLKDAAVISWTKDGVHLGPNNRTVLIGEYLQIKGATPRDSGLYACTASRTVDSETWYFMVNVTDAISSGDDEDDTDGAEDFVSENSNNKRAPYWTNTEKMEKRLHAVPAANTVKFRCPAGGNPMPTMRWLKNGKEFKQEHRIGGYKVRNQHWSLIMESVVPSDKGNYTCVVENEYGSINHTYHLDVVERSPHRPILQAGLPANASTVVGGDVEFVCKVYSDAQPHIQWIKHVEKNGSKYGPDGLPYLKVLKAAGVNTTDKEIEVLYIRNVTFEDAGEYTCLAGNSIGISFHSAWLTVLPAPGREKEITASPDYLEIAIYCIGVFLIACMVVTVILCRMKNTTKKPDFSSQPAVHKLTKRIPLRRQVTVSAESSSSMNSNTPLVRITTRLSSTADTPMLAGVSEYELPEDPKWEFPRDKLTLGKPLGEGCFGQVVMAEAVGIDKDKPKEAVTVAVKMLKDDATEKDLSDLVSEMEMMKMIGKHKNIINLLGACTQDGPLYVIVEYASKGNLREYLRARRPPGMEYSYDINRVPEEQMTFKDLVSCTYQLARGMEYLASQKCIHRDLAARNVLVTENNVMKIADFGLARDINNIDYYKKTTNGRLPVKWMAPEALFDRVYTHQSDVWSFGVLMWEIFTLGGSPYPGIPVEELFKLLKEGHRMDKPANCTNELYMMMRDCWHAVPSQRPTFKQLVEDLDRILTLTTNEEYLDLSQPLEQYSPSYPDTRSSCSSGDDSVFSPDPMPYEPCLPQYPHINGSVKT
T2 sequence (P22455 22-802): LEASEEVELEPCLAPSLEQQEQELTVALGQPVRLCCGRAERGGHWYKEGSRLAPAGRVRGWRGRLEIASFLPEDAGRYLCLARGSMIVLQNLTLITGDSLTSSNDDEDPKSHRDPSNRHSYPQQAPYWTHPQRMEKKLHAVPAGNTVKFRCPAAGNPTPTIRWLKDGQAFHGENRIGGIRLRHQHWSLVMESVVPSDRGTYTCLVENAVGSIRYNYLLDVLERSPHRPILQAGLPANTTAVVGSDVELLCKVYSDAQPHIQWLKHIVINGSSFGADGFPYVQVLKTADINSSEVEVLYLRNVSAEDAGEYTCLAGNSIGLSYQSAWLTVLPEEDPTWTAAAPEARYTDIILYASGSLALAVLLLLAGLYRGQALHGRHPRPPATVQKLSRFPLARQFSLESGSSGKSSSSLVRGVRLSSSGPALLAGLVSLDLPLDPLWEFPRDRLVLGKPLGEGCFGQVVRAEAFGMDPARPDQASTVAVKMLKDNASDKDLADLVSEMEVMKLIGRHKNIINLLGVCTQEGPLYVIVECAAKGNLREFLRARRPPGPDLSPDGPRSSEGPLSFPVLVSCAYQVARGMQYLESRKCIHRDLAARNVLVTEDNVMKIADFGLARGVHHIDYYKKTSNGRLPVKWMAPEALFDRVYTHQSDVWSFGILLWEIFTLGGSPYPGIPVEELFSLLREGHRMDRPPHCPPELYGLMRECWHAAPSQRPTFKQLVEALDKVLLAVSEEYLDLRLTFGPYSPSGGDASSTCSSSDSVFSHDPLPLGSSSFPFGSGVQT

CC(C)NC1(C)CN(c2ncc(-c3n[nH]c4ccc(O[C@H](C)c5c(Cl)cncc5Cl)cc34)cn2)C1 [Example 236, (R)-1-(5-(5-(1-(3,5-dichloropyridin-4-yl)ethoxy)-1H-indazol-3-yl)pyrimidin-2-yl)-N-isopropyl-3-methylazetidin-3-amine]
1 to 50 nM: all assays above

COc1cc2[nH]nc(-c3ccc(N4CC(C)(CP(C)(C)=O)C4)nc3)c2cc1O[C@H](C)c1c(Cl)cncc1Cl [Example 180, (R)-((1-(5-(5-(1-(3,5-dichloro-pyridin-4-yl)ethoxy)-6-meth-oxy-1H-inda-zol-3-yl)pyridin-2-yl)-3-methylazetidin-3-yl)methyl)dimethyl-phosphine oxide]
1 to 50 nM: all assays above

COc1cc2[nH]nc(-c3cnc(N4CC(C)(CNC(C)C)C4)nc3)c2cc1O[C@H](C)c1c(Cl)cncc1Cl [Example 84, (R)-N-((1-(5-(5-(1-(3,5-dichloropyridin-4-yl)ethoxy)-6-methoxy-1H-indazol-3-yl)pyrimidin-2-yl)-3-methylazetidin-3-yl)methyl)propan-2-amine]
1 to 50 nM: all assays above

CC(C)NCC1(C)CN(c2ccc(-c3n[nH]c4cc(F)c(O[C@H](C)c5c(Cl)cncc5Cl)cc34)cn2)C1 [Example 189, (R)-N-((1-(5-(5-(1-(3,5-dichloro-pyridin-4-yl)ethoxy)-6-fluoro-1H-indazol-3-yl)pyridin-2-yl)-3-methylazetidin-3-yl)methyl)propan-2-amine]
1 to 50 nM: all assays above

3-[6-[3-(cyclobutoxy)- 3-methyl-azetidin-1- yl]-3-pyridy1]-5-[(1R)- 1-(3,5-dichloro-2- methyl-4- pyridyl)ethoxy]-1H- indazole [Example 75]
1 to 50 nM: FGFR3 (V555M) | FGFR3
50 to 300 nM: FGFR4 | FGFR2
300 to 1000 nM: FGFR1

C[C@@H](Oc1ccc2[nH]nc(-c3cnc(N4CC(C)(NCC5CC5)C4)nc3)c2c1)c1c(Cl)cncc1Cl [Example 235, (R)-N-(cyclo-propylmethyl)-1-(5-(5-(1-(3,5-dichloropyridin-4-yl)ethoxy)-1H-indazol-3-yl)pyrimidin-2-yl)-3-methylazetidin-3-amine]
1 to 50 nM: all assays above

C[C@H](Oc1ccc2[nH]nc(-c3cnc(N4CC(C)(N(C)C)C4)c(F)c3)c2c1)c1c(Cl)cncc1Cl [Example 201, 1-[5-[5-[(1S)-1-(3,5-dichloro-4-pyridyl)ethoxy]-1H-indazol-3-yl]-3-fluoro-2-pyridyl]-N,N,3-trimethyl-azetidin-3-amine]
50 to 300 nM: FGFR3
300 to 1000 nM: all other assays above

C[C@@H](Oc1ccc2[nH]nc(-c3cnc(N4CC(C)(NCCO)C4)c(F)c3)c2c1F)c1c(Cl)cncc1Cl [Example 175, (R)-2-((1-(5-(5-(1-(3,5-dichloro-pyridin-4-yl)ethoxy)-4-fluoro-1H-indazol-3-yl)-3-fluoropyridin-2-yl)-3-methylazetidin-3-yl)amino)ethan-1-ol]
> 1000 nM: FGFR1 | FGFR2
50 to 300 nM: all other assays above

C[C@@H](Oc1ccc2[nH]nc(-c3cnc(N4CC(C)(N5CCOCC5)C4)c(C#N)c3)c2c1F)c1c(Cl)cncc1Cl [Example 327, (R)-5-(5-(1-(3,5-dichloropyridin-4-yl)ethoxy)-4-fluoro-1H-indazol-3-yl)-2-(3-methyl-3-morpholinoazetidin-1-yl)nicotinonitrile]
50 to 300 nM: FGFR4
> 1000 nM: all other assays above

C[C@@H](Oc1ccc2[nH]nc(-c3cnc(N4CC(C)(CS(C)(=O)=O)C4)nc3)c2c1)c1c(Cl)cncc1Cl [Example 195, (R)-5-(1-(3,5-dichloro-pyridin-4-yl)ethoxy)-3-(2-(3-methyl-3-((methylsulfonyl)-methyl)azetidin-1-yl)pyrimidin-5-yl)-1H-indazole]
1 to 50 nM: all assays above

C[C@@H](Oc1ccc2[nH]nc(-c3ccc(N4CC(C)(NCCO)C4)nc3)c2c1F)c1c(Cl)cncc1Cl [Example 192, (R)-2-((1-(5-(5-(1-(3,5-dichloro-pyridin-4-yl)ethoxy)-4-fluoro-1H-inda-zol-3-yl)pyridin-2-yl)-3-methylazetidin-3-yl)amino)ethanol]
50 to 300 nM: FGFR3
1 to 50 nM: FGFR3 (V555M)
300 to 1000 nM: all other assays above

C[C@@H](Oc1ccc2[nH]nc(-c3cnc(N4CC(C)(NC5CCC5)C4)c(C#N)c3)c2c1)c1c(Cl)cncc1Cl [Example 2, (R)-2-(3-(cyclobutylamino)-3-methylazetidin-1-yl)-5-(5-(1-(3,5-dichloropyridin-4-yl)ethoxy)-1H-indazol-3-yl)nicotinonitrile]
50 to 300 nM: FGFR1 | FGFR2
1 to 50 nM: all other assays above

C[C@@H](Oc1ccc2[nH]nc(-c3cnc(N4CC(C)(CS(C)(=O)=O)C4)c(F)c3)c2c1F)c1c(Cl)cncc1Cl [Example 196, (R)-5-(1-(3,5-dichloropyridin-4-yl)ethoxy)-4-fluoro-3-(5-fluoro-6-(3-methyl-3-((methyl-sulfonyl)meth-yl)azetidin-1-yl)pyridin-3-yl)-1H-indazole]
300 to 1000 nM: FGFR4 | FGFR3
50 to 300 nM: FGFR3 (V555M)
> 1000 nM: FGFR1 | FGFR2

C[C@@H](Oc1ccc2[nH]nc(-c3ccc(N4CC(C)(NCC(F)F)C4)nc3)c2c1)c1c(Cl)cncc1Cl [Example 125, 1-[5-[5-[(1R)-1-(3,5-dichloro-4-pyridyl)ethoxy]-1H-indazol-3-yl]-2-pyridyl]-N-(2,2-difluoroethyl)-3-methyl-azetidin-3-amine]
1 to 50 nM: all assays above

C[C@@H](Oc1cc2c(-c3ccc(N4CC(C)(NC5CCC5)C4)nc3)n[nH]c2cc1F)c1c(Cl)cncc1Cl [Example 68, N-cyclobutyl-1-[5-[5-[(1R)-1-(3,5-dichloro-4-pyridyl)ethoxy]-6-fluoro-1H-indazol-3-yl]-2-pyridyl]-3-methyl-azetidin-3-amine]
1 to 50 nM: all assays above

COc1cc2[nH]nc(-c3cnc(N4CC(C)(CP(C)(C)=O)C4)c(F)c3)c2cc1O[C@H](C)c1c(Cl)cncc1Cl [Example 179, (R)-((1-(5-(5-(1-(3,5-dichloro-pyridin-4-yl)ethoxy)-6-methoxy-1H-indazol-3-yl)-3-fluoropyridin-2-yl)-3-methylazetidin-3-yl)methyl)dimethyl-phosphine oxide]
1 to 50 nM: all assays above

CC(C)NCC1(C)CN(c2ccc(-c3n[nH]c4ccc(O[C@H](C)c5c(Cl)cncc5Cl)c(F)c34)cn2)C1 [Example 190, (R)-N-((1-(5-(5-(1-(3,5-dichloro-pyridin-4-yl)ethoxy)-4-fluoro-1H-indazol-3-yl)pyridin-2-yl)-3-methylazetidin-3-yl)methyl)propan-2-amine]
1 to 50 nM: FGFR3 (V555M) | FGFR3
300 to 1000 nM: all other assays above

COc1cc2[nH]nc(-c3cnc(N4CC(C)(NCCO)C4)c(F)c3)c2cc1O[C@H](C)c1c(Cl)cncc1Cl [Example 164, (R)-2-((1-(5-(5-(1-(3,5-dichloro-pyridin-4-yl)ethoxy)-6-methoxy-1H-indazol-3-yl)-3-fluoropyridin-2-yl)-3-methylazetidin-3-yl)amino)ethan-1-ol]
1 to 50 nM: all assays above

CNC1(C)CN(c2ccc(-c3n[nH]c4ccc(O[C@H](C)c5c(Cl)cncc5Cl)cc34)cn2)C1 [Example 233, (R)-1-(5-(5-(1-(3,5-dichloropyridin-4-yl)ethoxy)-1H-indazol-3-yl)pyridin-2-yl)-N,3-dimethylazetidin-3-amine]
1 to 50 nM: all assays above

C[C@@H](Oc1ccc2[nH]nc(-c3cnc(N4CC(C)(NCC5CC5)C4)c(C#N)c3)c2c1F)c1c(Cl)cncc1Cl [Example 318, (R)-2-(3-((cyclopropylmethyl)amino)-3-methylazetidin-1-yl)-5-(5-(1-(3,5-dichloropyridin-4-yl)ethoxy)-4-fluoro-1H-indazol-3-yl)nicotinonitrile]
50 to 300 nM: FGFR4
> 1000 nM: all other assays above

C[C@@H](O)CNC1(C)CN(c2ncc(-c3n[nH]c4ccc(O[C@H](C)c5c(Cl)cncc5Cl)cc34)cc2F)C1 [Example 104, (R)-1-((1-(5-(5-((R)-1-(3,5-dichloropyridin-4-yl)ethoxy)-1H-indazol-3-yl)-3-fluoropyridin-2-yl)-3-methylazetidin-3-yl)amino)propan-2-ol]
1 to 50 nM: all assays above
